How the values were obtained:
[1] = system: MOLT-4; experiment: ATP-based luminescence cell viability (CellTiter Glo), drug response score, MOLT-4; details: MOLT-4, screened individually (Compress: None)
Description: (§1) As part of a screen, a drug could be screened at different concentrations ranging from a lowest concentration to a highest concentration. In such a scenario, multiple data structures may be obtained by the screening platform 210. […] With these multiple data structures, the analysis module 218 can generate a dose-response curve that describes the magnitude of the response of the biological target, as a function of exposure to different concentrations of the drug. Further, the analysis module 218 can calculate a metric that is indicative of the response of the biological target. In the event that the biological target is one of multiple biological targets that are introduced to the pools of drugs, the metric can be used by the screening platform 210 to better understand the relative magnitude of responses. One example of a metric is drug-response score (“DRS”). DRS can be calculated as a continuous function of multiple parameters of the non-linear dose-response curve, including the slope at the half-maximal effective concentration (also called “EC50”) and the top and bottom asymptotes of the dose-response curve. DRS can be calculated as follows: […]
(§2) where y is a continuous function of the variable dose x, a is the maximal response (i.e., the top asymptote of the curve), b is the slope of the curve, c is the IC50 (i.e., half-maximal inhibitory concentration), and d is the minimal response (i.e., the bottom asymptote of the curve). Other examples of metrics include those output by sigmoidal and Hill slide functions that, like DRS, incorporate multiple aspects of the dose-response curve into a continuous function.
Total cell viability was measured for each cancer cell line using an Adenosine TriPhosphate (“ATP”) assay, and more specifically an ATP-based luminescence assay (i.e., CellTiter Glo). […] The DRS was calculated as a continuous function of multiple parameters of the non-linear dose-response curve, including the slope at the half-maximal effective concentration (also called “EC50”) and the top and bottom asymptotes of the dose-response curve. […] After total cell viability was measured and DRS was calculated, the DRS of each cancer cell line in the pool was deconvolved for each cancer drug.
DRS for these anchor cell lines are bolded and italicized. […] Each pool can then be expressed as a polynomial of variables (cell lines in the pool) and constants (DRS value of the pool). […] When multiple values are calculated for the final target solved from the polynomials, then the anchor has a non-zero value that can be determined based on the difference in the calculated value of the final target. […]

[2] = system: JURKAT; experiment: ATP-based luminescence cell viability (CellTiter Glo), drug response score, JURKAT; details: Target compression
Description: as §1, §2
(§3) Total cell viability was measured for each cancer cell line using an Adenosine TriPhosphate (“ATP”) assay, and more specifically an ATP-based luminescence assay (i.e., CellTiter Glo). Each cancer drug was screened at multiple concentrations ranging from one nanomolar (nM) to ten micromolar (UM) in order to generate a dose-response curve and calculate a drug response score (“DRS”) for each cancer cell line. The DRS was calculated as a continuous function of multiple parameters of the non-linear dose-response curve, including the slope at the half-maximal effective concentration (also called “EC50”) and the top and bottom asymptotes of the dose-response curve. […] After total cell viability was measured and DRS was calculated, the DRS of each cancer cell line in the pool was deconvolved for each cancer drug.
DRS for these anchor cell lines are bolded and italicized. Anchors can be identified based on frequency of the cell lines in pools with high DRS versus low DRS. At a high level, an anchor is predicted to be the cell line with the lowest individual DRS. In order to deconvolute individual cell line DRS values from pool DRS values, the anchor can start with an assumed DRS value of zero. Each pool can then be expressed as a polynomial of variables (cell lines in the pool) and constants (DRS value of the pool). The DRS value of each cell line can then be solved for using the anchor value and overlapping polynomial expressions. When multiple values are calculated for the final target solved from the polynomials, then the anchor has a non-zero value that can be determined based on the difference in the calculated value of the final target.
(§4) Each pool represented a co-culture of three cell lines (“Target Compression”).

[3] = system: library of cancer cell lines; experiment: Hit profile of cancer drugs across library of cancer cell lines (cell viability); type: cell-based; details: across cancer cell lines screened individually
Experimental: Total cell viability was measured for each cancer cell line using an Adenosine TriPhosphate (“ATP”) assay, and more specifically an ATP-based luminescence assay (i.e., CellTiter Glo). Each cancer drug was screened at multiple concentrations ranging from one nanomolar (nM) to ten micromolar (UM) in order to generate a dose-response curve and calculate a drug response score (“DRS”) for each cancer cell line. The DRS was calculated as a continuous function of multiple parameters of the non-linear dose-response curve, including the slope at the half-maximal effective concentration (also called “EC50”) and the top and bottom asymptotes of the dose-response curve. […]
Table I includes several examples of cancer drugs and their DRSs across each cancer cell line in the aforementioned experiment.

[4] = system: pooled samples of three cancer cell lines; experiment: Cell viability (CellTiter Glo) of compressed pooled samples of three individually cultured cell lines (Sample Compression); type: cell-based
Experimental: as §3
A benefit of the compression methodology is the ability to compress members of a library into pools for co-culture screens or compress individual cell cultures into pooled samples for measurement. For example, leukemia cell lines can interact in co-cultures through their immune receptors, which may result in cell activation, cytokine production, and other effects that may impact drug sensitivity and resistance. […] Instead of creating compressed target cells in pooled co-cultures, compression was instead used to enable individual cultures of each cell line, with pooled measurements to reduce reagents and instrument time. With individual cultures and sample compression, it was possible to accurately deconvolute DRS for each drug on each cell line, as shown in Table IV.

[5] = system: co-culture of three cancer cell lines; experiment: Cell viability (CellTiter Glo) of compressed target pools, co-cultures of three cell lines (Target Compression); type: cell-based
Experimental: as §3, §4

[6] = system: SUP-B15; experiment: ATP-based luminescence cell viability (CellTiter Glo), drug response score, SUP-B15; design: scale not given here; details: SUP-B15, screened individually (Compress: None)
[7] = system: CCRF-CFM; experiment: ATP-based luminescence cell viability (CellTiter Glo), drug response score, CCRF-CFM; design: scale not given here; details: for DRS from deconvolution: Sample compression, 5 Pick 3 pools; for drug response score (DRS): screened individually (Compress: None)
[8] = system: CCRF-HSB2; experiment: ATP-based luminescence cell viability (CellTiter Glo), drug response score, CCRF-HSB2; details: CCRF-HSB2, screened individually (Compress: None)
[9] = system: MOLT-4; experiment: ATP-based luminescence cell viability (CellTiter Glo), drug response score, MOLT-4
[10] = 5 Pick 3, Pool 1 (REH, SUP-B15, CCRF-CFM)
[11] = 5 Pick 3, Pool 2 (SUP-B15, CCRF-HSB2, MOLT-4)
[12] = 5 Pick 3, Pool 3 (SUP-B15, CCRF-CFM, CCRF-HSB2)
[13] = 5 Pick 3, Pool 4 (REH, CCRF-CFM, MOLT-4)
[14] = 5 Pick 3, Pool 5 (REH, CCRF-HSB2, MOLT-4)
[15] = 6 Pick 3, Pool 1 (REH, CCRF-CFM, MOLT-4)
[16] = 6 Pick 3, Pool 2 (REH, CCRF-HSB2, MOLT-4)
[17] = 6 Pick 3, Pool 3 (REH, CCRF-CFM, JURKAT)
[18] = 6 Pick 3, Pool 4 (SUP-B15, CCRF-HSB2, JURKAT)
[19] = 6 Pick 3, Pool 5 (SUP-B15, CCRF-CFM, JURKAT)
[20] = 6 Pick 3, Pool 6 (SUP-B15, CCRF-HSB2, MOLT-4)
[21] = 7 Pick 3, Pool 1 (SUP-B15, CCRF-CFM, JURKAT)
[22] = 7 Pick 3, Pool 2 (SUP-B15, CCRF-HSB2, NALM-6)
[23] = 7 Pick 3, Pool 3 (SUP-B15, CCRF-CFM, NALM-6)
[24] = 7 Pick 3, Pool 4 (REH, CCRF-HSB2, JURKAT)
[25] = 7 Pick 3, Pool 5 (REH, MOLT-4, NALM-6)
[26] = 7 Pick 3, Pool 6 (REH, MOLT-4, JURKAT)
[27] = 7 Pick 3, Pool 7 (CCRF-CFM, CCRF-HSB2, MOLT-4)
[28] = MOLT-4, Sample compression, 5 Pick 3 pools
[29] = MOLT-4, Target compression, 5 Pick 3 pools
[30] = MOLT-4, Target compression, 6 Pick 3 pools
[31] = MOLT-4, Target compression, 7 Pick 3 pools

Compound	drug response score (DRS) [1]	DRS from deconvolution ([2]; 6 Pick 3 pools)	DRS from deconvolution ([2]; 7 Pick 3 pools)	Hits (hit profile) [3]	DRS of pool [4, 10]	DRS of pool [4, 11]	DRS of pool [4, 12]	DRS of pool [4, 13]	DRS of pool [4, 14]	DRS of pool [5, 10]	DRS of pool [5, 11]	DRS of pool [5, 12]	DRS of pool [5, 13]	DRS of pool [5, 14]	DRS of pool [5, 15]	DRS of pool [5, 16]	DRS of pool [5, 17]	DRS of pool [5, 18]	DRS of pool [5, 19]	DRS of pool [5, 20]	further results
N#Cc1ccnc(N2C(=O)CC[C@H]2C(=O)N(c2cncc(F)c2)[C@H](C(=O)NC2CC(F)(F)C2)c2ccccc2Cl)c1 [Ivosidenib]	0.20	0.84	0.70	None	0.52	0.55	0.82	0.51	0.74	0.54	0.60	0.91	0.63	0.88	0.60	0.81	0.77	0.61	0.57	0.61	DRS of pool [5, 21]: 0.57; DRS of pool [5, 22]: 0.54; DRS of pool [5, 23]: 0.34; DRS of pool [5, 24]: 0.98; DRS of pool [5, 25]: 0.27; DRS of pool [5, 26]: 0.51; DRS of pool [5, 27]: 0.95; drug response score (DRS) [6]: 0.00; DRS from deconvolution [7]: 0.99; drug response score (DRS) [7]: 1.00; drug response score (DRS) [8]: 1.60; DRS from deconvolution [9, 28]: 0.06; DRS from deconvolution [9, 29]: 0.21; DRS from deconvolution [9, 30]: 0.30; DRS from deconvolution [9, 31]: 0.22
Cc1[nH]c2ccccc2c1CCNCc1ccc(/C=C/C(=O)NO)cc1 [Panobinostat]	15.10	14.37	13.23	All	18.56	19.17	20.34	14.93	15.87	17.85	18.46	20.02	15.81	16.48	15.05	15.25	14.41	18.23	17.93	18.22	DRS of pool [5, 21]: 17.85; DRS of pool [5, 22]: 18.41; DRS of pool [5, 23]: 18.84; DRS of pool [5, 27]: 16.92; drug response score (DRS) [6]: 22.40; DRS from deconvolution [7]: 18.07; drug response score (DRS) [7]: 17.50; drug response score (DRS) [8]: 17.40; DRS from deconvolution [9, 28]: 14.56; DRS from deconvolution [9, 29]: 15.32; DRS from deconvolution [9, 30]: 15.84; DRS from deconvolution [9, 31]: 14.94
COc1c(OCCCN2CCOCC2)ccc2c1N=C(NC(=O)c1cnc(N)nc1)N1CCN=C21 [Copanlisib]	9.44	0.00	2.30	Multiple	10.47	6.63	8.39	13.65	10.96	10.53	6.47	8.68	13.21	10.79	12.63	9.99	9.72	6.40	6.40	6.47	DRS of pool [5, 21]: 6.55; DRS of pool [5, 22]: 7.58; DRS of pool [5, 23]: 10.22; DRS of pool [5, 24]: 7.17; DRS of pool [5, 25]: 11.88; DRS of pool [5, 26]: 8.07; DRS of pool [5, 27]: 10.65; drug response score (DRS) [6]: 2.84; DRS from deconvolution [7]: 15.72; drug response score (DRS) [7]: 15.14; drug response score (DRS) [8]: 6.94; DRS from deconvolution [9, 28]: 12.24; DRS from deconvolution [9, 29]: 11.02; DRS from deconvolution [9, 30]: 8.72; DRS from deconvolution [9, 31]: 9.83

— patent US20260378560A1, “APPROACHES TO DESIGNING AND PERFORMING COMPRESSED BIOLOGICAL EXPERIMENTS AND SYSTEMS FOR IMPLEMENTING THE SAME” (EXVIVO LABS INC., priority 2023, published 2026)
